Experiments:
[1] = target: T1, Corticotropin-releasing factor receptor 1 (Homo sapiens, UniProt P34998)
T1 sequence (P34998 whole entry): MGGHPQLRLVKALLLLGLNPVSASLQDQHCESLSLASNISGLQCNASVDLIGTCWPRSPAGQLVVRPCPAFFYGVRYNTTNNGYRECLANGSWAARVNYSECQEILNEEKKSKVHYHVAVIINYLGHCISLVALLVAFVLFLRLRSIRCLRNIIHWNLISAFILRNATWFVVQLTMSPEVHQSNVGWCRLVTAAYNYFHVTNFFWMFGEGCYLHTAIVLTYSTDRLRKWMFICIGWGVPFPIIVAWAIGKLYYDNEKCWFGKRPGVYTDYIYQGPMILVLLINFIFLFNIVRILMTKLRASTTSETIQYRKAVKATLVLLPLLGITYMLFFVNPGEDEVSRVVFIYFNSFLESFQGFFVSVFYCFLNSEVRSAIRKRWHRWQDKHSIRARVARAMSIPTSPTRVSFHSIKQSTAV

[2] = target: Beta-3 adrenergic receptor (Homo sapiens, UniProt P13945)
Chain of Beta-3 adrenergic receptor (P13945 whole entry): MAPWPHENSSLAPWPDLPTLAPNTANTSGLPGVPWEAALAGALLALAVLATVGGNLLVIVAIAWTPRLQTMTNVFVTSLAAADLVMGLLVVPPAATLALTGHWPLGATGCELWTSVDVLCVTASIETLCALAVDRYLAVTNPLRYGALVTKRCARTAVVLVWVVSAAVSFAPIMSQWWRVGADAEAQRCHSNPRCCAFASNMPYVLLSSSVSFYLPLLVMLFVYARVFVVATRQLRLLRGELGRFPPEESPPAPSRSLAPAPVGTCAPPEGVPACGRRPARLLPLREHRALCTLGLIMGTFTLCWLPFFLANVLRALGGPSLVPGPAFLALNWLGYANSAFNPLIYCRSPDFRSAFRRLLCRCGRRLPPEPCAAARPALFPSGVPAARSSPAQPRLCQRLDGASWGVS

D(1A) dopamine receptor = D(1A) dopamine receptor (Homo sapiens, UniProt P21728)
Chain of D(1A) dopamine receptor (P21728 whole entry): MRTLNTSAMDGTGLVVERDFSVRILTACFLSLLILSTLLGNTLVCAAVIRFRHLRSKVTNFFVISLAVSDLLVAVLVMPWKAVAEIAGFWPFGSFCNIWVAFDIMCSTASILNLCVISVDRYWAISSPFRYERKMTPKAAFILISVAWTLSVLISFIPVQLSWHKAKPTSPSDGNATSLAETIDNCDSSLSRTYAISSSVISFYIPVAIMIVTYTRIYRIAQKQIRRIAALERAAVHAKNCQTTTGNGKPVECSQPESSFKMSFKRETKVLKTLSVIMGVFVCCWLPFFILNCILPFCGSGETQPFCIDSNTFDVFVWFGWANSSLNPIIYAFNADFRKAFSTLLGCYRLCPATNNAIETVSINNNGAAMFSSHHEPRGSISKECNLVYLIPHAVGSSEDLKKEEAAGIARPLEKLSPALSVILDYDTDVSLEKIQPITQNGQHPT

[3] = target: 5-hydroxytryptamine receptor 7 (Homo sapiens, UniProt P34969)
Chain of 5-hydroxytryptamine receptor 7 (P34969 whole entry): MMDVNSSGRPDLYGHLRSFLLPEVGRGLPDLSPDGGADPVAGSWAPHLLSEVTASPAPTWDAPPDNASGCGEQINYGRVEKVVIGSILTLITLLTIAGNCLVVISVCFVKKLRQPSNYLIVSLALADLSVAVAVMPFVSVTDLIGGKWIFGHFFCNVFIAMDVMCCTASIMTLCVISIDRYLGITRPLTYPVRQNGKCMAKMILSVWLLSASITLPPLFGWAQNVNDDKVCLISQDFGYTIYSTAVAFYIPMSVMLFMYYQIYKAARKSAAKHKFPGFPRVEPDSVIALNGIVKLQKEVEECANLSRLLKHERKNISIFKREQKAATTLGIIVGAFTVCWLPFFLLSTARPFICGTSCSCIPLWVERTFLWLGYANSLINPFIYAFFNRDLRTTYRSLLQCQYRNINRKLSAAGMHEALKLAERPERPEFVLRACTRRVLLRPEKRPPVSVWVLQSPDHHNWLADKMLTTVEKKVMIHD

[4] = target: 5-hydroxytryptamine receptor 2B (Homo sapiens, UniProt P41595)
Chain of 5-hydroxytryptamine receptor 2B (P41595 whole entry): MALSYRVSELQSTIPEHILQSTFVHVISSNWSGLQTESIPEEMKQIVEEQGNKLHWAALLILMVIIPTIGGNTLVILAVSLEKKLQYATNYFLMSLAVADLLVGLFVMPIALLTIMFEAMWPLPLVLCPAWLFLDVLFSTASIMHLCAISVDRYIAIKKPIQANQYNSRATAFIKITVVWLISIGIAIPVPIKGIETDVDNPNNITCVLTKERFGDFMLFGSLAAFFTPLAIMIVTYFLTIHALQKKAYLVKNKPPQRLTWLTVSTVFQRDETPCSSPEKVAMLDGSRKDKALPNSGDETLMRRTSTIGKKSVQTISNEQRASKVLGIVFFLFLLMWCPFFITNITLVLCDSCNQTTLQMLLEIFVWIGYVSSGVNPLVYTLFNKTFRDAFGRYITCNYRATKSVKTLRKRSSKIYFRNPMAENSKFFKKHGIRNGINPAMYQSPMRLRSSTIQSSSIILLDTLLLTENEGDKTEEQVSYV

[5] = target: 5-hydroxytryptamine receptor 6 (Homo sapiens, UniProt P50406)
Chain of 5-hydroxytryptamine receptor 6 (P50406 whole entry): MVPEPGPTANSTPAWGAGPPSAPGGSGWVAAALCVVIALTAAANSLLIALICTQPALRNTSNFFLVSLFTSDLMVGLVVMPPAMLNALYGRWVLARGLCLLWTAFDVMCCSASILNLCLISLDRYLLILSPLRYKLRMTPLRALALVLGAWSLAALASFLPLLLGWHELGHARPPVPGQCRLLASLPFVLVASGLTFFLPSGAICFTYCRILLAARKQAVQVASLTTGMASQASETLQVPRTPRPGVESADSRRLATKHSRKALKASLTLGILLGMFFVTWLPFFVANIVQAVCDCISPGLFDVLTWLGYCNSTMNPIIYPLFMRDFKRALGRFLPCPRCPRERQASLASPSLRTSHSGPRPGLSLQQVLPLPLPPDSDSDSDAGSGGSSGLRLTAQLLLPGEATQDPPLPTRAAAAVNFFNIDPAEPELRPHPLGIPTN

[6] = target: Neurotensin receptor type 1 (Homo sapiens, UniProt P30989)
Chain of Neurotensin receptor type 1 (P30989 whole entry): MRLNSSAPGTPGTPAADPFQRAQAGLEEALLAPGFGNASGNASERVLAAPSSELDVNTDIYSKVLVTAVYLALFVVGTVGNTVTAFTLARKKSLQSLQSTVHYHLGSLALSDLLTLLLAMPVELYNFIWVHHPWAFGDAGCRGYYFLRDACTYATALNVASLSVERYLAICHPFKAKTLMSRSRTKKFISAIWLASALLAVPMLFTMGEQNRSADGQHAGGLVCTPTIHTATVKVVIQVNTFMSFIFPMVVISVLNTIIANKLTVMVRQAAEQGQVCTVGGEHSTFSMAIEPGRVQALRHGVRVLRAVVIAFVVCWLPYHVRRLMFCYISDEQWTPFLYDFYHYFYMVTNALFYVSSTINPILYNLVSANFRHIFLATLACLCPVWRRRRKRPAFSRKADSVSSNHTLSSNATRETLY

Estrogen receptor beta = Estrogen receptor beta (Homo sapiens, UniProt Q92731)
Chain of Estrogen receptor beta (Q92731 whole entry): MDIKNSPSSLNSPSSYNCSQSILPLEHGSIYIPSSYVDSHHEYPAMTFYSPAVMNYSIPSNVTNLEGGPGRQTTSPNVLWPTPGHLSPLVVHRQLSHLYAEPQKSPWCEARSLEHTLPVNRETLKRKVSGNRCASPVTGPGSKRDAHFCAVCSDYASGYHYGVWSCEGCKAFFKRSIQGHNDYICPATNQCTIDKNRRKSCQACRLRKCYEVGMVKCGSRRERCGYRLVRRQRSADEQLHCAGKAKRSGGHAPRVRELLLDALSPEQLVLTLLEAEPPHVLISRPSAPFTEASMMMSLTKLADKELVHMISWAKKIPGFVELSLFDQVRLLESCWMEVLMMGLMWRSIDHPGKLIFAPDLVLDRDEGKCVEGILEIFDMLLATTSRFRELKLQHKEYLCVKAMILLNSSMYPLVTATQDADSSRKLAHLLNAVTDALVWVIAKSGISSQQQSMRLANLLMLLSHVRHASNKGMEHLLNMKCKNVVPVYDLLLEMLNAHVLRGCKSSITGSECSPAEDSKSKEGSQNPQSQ

[7] = target: Gamma-aminobutyric acid receptor subunit alpha-1 (Rattus norvegicus, UniProt P62813)
Chain of Gamma-aminobutyric acid receptor subunit alpha-1 (P62813 whole entry): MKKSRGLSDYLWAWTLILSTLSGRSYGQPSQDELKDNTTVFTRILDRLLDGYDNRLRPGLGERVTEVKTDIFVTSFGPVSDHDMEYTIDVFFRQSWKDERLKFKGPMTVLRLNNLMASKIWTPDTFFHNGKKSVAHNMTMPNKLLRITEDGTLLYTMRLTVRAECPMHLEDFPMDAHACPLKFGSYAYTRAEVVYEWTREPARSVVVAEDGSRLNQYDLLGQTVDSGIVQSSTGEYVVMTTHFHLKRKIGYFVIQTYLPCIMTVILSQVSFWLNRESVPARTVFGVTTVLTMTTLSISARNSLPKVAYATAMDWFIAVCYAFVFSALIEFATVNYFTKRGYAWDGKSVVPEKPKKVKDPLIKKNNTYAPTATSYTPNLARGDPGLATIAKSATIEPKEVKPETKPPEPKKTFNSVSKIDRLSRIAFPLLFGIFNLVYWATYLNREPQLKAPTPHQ

[8] = target: T2, Muscarinic acetylcholine receptor M1 (Homo sapiens, UniProt P11229); type: functional, cell-based
T2 sequence (P11229 whole entry): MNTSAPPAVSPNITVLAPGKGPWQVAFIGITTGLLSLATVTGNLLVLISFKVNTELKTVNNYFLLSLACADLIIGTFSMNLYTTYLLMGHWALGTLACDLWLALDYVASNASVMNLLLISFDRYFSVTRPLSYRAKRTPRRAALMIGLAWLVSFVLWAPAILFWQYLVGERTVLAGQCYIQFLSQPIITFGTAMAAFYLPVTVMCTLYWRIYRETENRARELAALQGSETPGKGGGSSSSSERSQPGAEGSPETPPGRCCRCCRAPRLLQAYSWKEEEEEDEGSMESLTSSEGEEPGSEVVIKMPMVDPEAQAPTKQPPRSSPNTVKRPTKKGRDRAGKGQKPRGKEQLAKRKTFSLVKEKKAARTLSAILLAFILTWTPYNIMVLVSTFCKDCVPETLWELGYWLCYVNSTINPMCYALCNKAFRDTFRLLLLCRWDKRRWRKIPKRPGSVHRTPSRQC

[9] = target: T3, Peroxisome proliferator-activated receptor gamma (Homo sapiens, UniProt P37231); type: functional
T3 sequence (P37231 whole entry): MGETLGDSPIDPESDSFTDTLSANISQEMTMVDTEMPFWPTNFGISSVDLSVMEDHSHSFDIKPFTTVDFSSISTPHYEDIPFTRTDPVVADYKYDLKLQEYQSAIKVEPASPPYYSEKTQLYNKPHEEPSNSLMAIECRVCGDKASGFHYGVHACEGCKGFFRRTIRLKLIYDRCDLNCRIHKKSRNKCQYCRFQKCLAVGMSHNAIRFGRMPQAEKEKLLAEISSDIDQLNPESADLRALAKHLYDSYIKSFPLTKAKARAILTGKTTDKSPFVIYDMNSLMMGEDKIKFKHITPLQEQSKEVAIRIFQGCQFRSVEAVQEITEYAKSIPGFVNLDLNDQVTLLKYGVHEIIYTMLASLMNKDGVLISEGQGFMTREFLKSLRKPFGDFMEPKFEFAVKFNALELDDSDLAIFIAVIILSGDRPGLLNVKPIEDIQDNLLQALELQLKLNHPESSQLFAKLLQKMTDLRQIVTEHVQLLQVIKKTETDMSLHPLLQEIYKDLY
Note: assay procedure not described here.

AC50 [3] [µM] | AC50 [5] [µM] | SMILES | AC50 [1] [µM] | AC50 [2] [µM] | AC50 (D(1A) dopamine receptor) [µM] | AC50 [4] [µM] | AC50 [6] [µM] | AC50 (Estrogen receptor beta) [µM] | AC50 [7] [µM] | AC50 [8] [µM] | AC50 [9] [µM]
> 10 | > 10 | CCOC(=O)[C@H](CCc1ccccc1)N[C@@H](C)C(=O)N1CCC[C@H]1C(=O)O | > 30 | > 30 | > 10 | > 10 | > 30 | – | – | – | –
– | – | Oc1ncnc2[nH]ncc12 [ALLOPURINOL] | > 30 | > 30 | > 10 | > 10 | > 30 | > 30 | – | – | –
– | – | C(=N\NC1=NCCN1)/c1c2ccccc2c(/C=N/NC2=NCCN2)c2ccccc12 [BISANTRENE] | – | – | – | – | – | – | > 30 | 6.37 | –
– | – | CC(C)NCC(O)COc1ccc(COCCOC(C)C)cc1 (stereo not given) [BISOPROLOL] | > 30 | – | > 10 | > 10 | > 30 | > 30 | – | – | –
– | – | N[C@@H](C(=O)N[C@@H]1C(=O)N2C(C(=O)O)=C(Cl)CS[C@H]12)c1ccccc1 [CEFACLOR ANHYDROUS] | – | – | – | – | – | – | – | – | > 30
– | – | CCO/N=C(\C(=O)N[C@@H]1C(=O)N2C(C(=O)[O-])=C(Sc3nc(-c4cc[n+](C)cc4)cs3)CS[C@H]12)c1nsc(N)n1 [CEFTAROLINE] | – | – | – | – | – | – | – | > 30 | –
– | – | CC(=O)OCC(=O)[C@@]1(O)CC[C@H]2[C@@H]3CCC4=CC(=O)CC[C@]4(C)[C@H]3C(=O)C[C@@]21C [CORTISONE ACETATE] | – | – | – | – | – | – | > 30 | – | –
– | – | C[N+](C)(C)CCCCCCCCCC[N+](C)(C)C [DECAMETHONIUM] | – | – | – | – | – | – | – | > 30 | –
– | – | O=C1c2ccccc2C(=O)C1C(=O)C(c1ccccc1)c1ccccc1 [DIPHENADIONE] | – | – | – | – | – | – | > 30 | > 3 | –
> 10 | > 10 | COc1cc2c(cc1OC)C(=O)C(CC1CCN(Cc3ccccc3)CC1)C2 (stereo not given) [DONEPEZIL] | > 30 | > 30 | > 10 | – | > 30 | > 30 | – | 5.32 | –
– | – | COC(=O)[C@@H]1CC2=CC(=O)CC[C@]2(C)[C@@]23O[C@@H]2C[C@@]2(C)[C@@H](CC[C@@]24CCC(=O)O4)[C@H]13 [EPLERENONE] | > 30 | > 30 | > 10 | > 10 | > 30 | – | – | – | > 30
– | – | CCC(=O)O[C@H]1[C@H](O[C@@H]2[C@@H](C)[C@H](O[C@H]3C[C@@](C)(OC)[C@@H](O)[C@H](C)O3)[C@@H](C)C(=O)O[C@H](CC)[C@@](C)(O)[C@H](O)[C@@H](C)C(=O)[C@H](C)C[C@@]2(C)O)O[C@H](C)C[C@@H]1N(C)C [ERYTHROMYCIN PROPIONATE] | – | – | – | – | – | – | > 30 | – | –
– | – | O=C1[C@H](CC[C@H](O)c2ccc(F)cc2)[C@@H](c2ccc(O)cc2)N1c1ccc(F)cc1 [EZETIMIBE] | – | – | – | – | – | – | – | 4.55 | –
> 10 | > 10 | NC(N)=Nc1nc(CSCCC(N)=NS(N)(=O)=O)cs1 [FAMOTIDINE] | > 30 | > 30 | > 10 | > 10 | > 30 | – | – | – | –
– | – | CCC(=O)c1c(O)cc(O)cc1O [FLOPROPIONE] | – | – | – | – | – | – | – | > 30 | –
> 10 | > 10 | NS(=O)(=O)c1cc2c(cc1Cl)NCNS2(=O)=O [HYDROCHLOROTHIAZIDE] | > 30 | > 30 | > 10 | 6.91 | > 30 | > 30 | – | – | –
– | – | C#C[C@]1(O)CC[C@H]2[C@@H]3CCC4=CC(=O)CC[C@@H]4[C@H]3CC[C@@]21CC [LEVONORGESTREL] | – | – | – | – | – | – | 3.44 | – | –

SMILES | AC50 [3] [µM] | AC50 [5] [µM] | AC50 [1] [µM] | AC50 [2] [µM] | AC50 (D(1A) dopamine receptor) [µM] | AC50 [4] [µM] | AC50 [6] [µM] | AC50 (Estrogen receptor beta) [µM] | AC50 [7] [µM] | AC50 [8] [µM] | AC50 [9] [µM]
Nc1nc(N)c2nc(-c3ccccc3)c(N)nc2n1 | > 10 | > 10 | > 30 | > 30 | > 10 | > 10 | > 30 | > 30 | – | – | –
C[C@H]1O[C@H](O[C@H]2[C@H](O)[C@@H](O)[C@@H](O[C@H]3[C@H](O)[C@@H](O)C(O)O[C@@H]3CO)O[C@@H]2CO)[C@H](O)[C@@H](O)[C@@H]1N[C@H]1C=C(CO)[C@@H](O)[C@H](O)[C@H]1O (stereo not given in full) [ACARBOSE] | > 10 | > 10 | > 30 | > 30 | > 10 | > 10 | > 30 | > 30 | > 30 | – | –
COc1cc(Nc2c(C#N)cnc3cc(OCCCN4CCN(C)CC4)c(OC)cc23)c(Cl)cc1Cl [BOSUTINIB] | > 10 | > 10 | > 30 | 16.8 | > 10 | – | > 30 | > 30 | > 30 | > 3 | –

Reference: ChEMBL document CHEMBL5291721, “A preclinical secondary pharmacology resource illuminates target-adverse drug reaction associations of marketed drugs” (Nat Commun, 2023)
